Our source for the MIC and Activity values is ChEMBL document CHEMBL4819039, “Taxonomy Driven Discovery of Polyketides from Aspergillus californicus” (2021).

Assay [1] deals with Staphylococcus aureus. In words: Antibacterial activity against methicillin-resistance Staphylococcus aureus MB5393 assessed as inhibition of bacterial growth. The format is functional.
For assay [2], the system named is Staphylococcus aureus. In words: Antibacterial activity against methicillin-sensitive Staphylococcus aureus ATCC 29213 assessed as inhibition of bacterial growth. The format is functional.
A further assay has as its system Escherichia coli. Briefly: Antibacterial activity against Escherichia coli ATCC 25922 assessed as inhibition of bacterial growth. The format is functional.
The next assay relates to Klebsiella pneumoniae. In words: Antibacterial activity against Klebsiella pneumoniae ATCC 700603 assessed as inhibition of bacterial growth. In kind it is functional.
The subject of another assay is A549. In words: Cytotoxicity against human A549 cells after 72 hrs by MTT assay. In kind it is functional, cell-based.
The subject of another assay is A2058. In words: Cytotoxicity against human A2058 cells after 72 hrs by MTT assay. The format is functional, cell-based. (In general: Tetrazolium dyes change colour on reduction, which living cells bring about.)
The next assay relates to HepG2. In words: Cytotoxicity against human HepG2 cells after 72 hrs by MTT assay. The format is functional, cell-based.
The next assay relates to MCF7. Briefly: Cytotoxicity against human MCF7 cells after 72 hrs by MTT assay. In kind it is functional, cell-based.
A further assay relates to MIA PaCa-2. In words: Cytotoxicity against human MIA PaCa-2 cells after 72 hrs by MTT assay. In kind it is functional, cell-based.
The next assay relates to HL-60. Briefly: Cytotoxicity against human HL-60 cells after 72 hrs by CCK-8 assay. The format is functional, cell-based.

≈ marks a conversion by molar mass, not a printed value. Calls of active or inactive are those of the source. The rule behind the calls is not given here.

On to `CCCCC/C=C/C=C/c1cccc(O)c1CO`, for which the MIC in the assay with Staphylococcus aureus [1] and in the assay on Staphylococcus aureus [2] was 48 µg/mL (≈ 195 µM) each time. The result in the assay on Escherichia coli, in the assay on Klebsiella pneumoniae, in the assay with A549, in the assay with A2058, in the assay on HepG2 and with MCF7 was inactive. Also, the outcome in the assay with MIA PaCa-2 and in the assay on HL-60 was inactive.
`CCCCC[C@H](O)C(=O)C[C@H]1OC(=O)c2c(O)ccc(CC=C(C)C)c21`: the MIC in the assay with Staphylococcus aureus [1], with Staphylococcus aureus [2], with Escherichia coli and with Klebsiella pneumoniae was over 64 µg/mL throughout. The outcome in the assay with A549, with A2058, with HepG2, in the assay with MCF7, in the assay on MIA PaCa-2 and in the assay with HL-60 was inactive.
Take `CCCCC[C@H](O)[C@@H](O)C[C@@H]1OCc2c(O)ccc(CC=C(C)C)c21`: the MIC in the assay on Staphylococcus aureus [1], in the assay with Staphylococcus aureus [2], in the assay with Escherichia coli and in the assay on Klebsiella pneumoniae was over 64 µg/mL in each case. Moreover, the outcome in the assay with A549, in the assay on A2058, in the assay on HepG2, in the assay with MCF7, in the assay on MIA PaCa-2 and with HL-60 was inactive.
As for `CCCCCC(=O)[C@]1(O)C=Cc2c(CC=C(C)C)ccc(O)c2[C@H]1O`, the MIC in the assay with Staphylococcus aureus [1], in the assay with Staphylococcus aureus [2], in the assay on Escherichia coli and in the assay with Klebsiella pneumoniae was over 64 µg/mL throughout. Further, the outcome in the assay with A549, in the assay with A2058, in the assay on HepG2, in the assay with MCF7, in the assay with MIA PaCa-2 and in the assay with HL-60 was inactive.
As to `CCCCC[C@H](O)C(=O)C[C@@H]1OC(=O)c2c(O)ccc(CC=C(C)C)c21`, the minimal inhibitory concentration (MIC) with Staphylococcus aureus [1], in the assay on Staphylococcus aureus [2], in the assay with Escherichia coli and with Klebsiella pneumoniae was over 64 µg/mL throughout. The outcome in the assay with A549, with A2058, in the assay with HepG2, in the assay on MCF7, in the assay on MIA PaCa-2 and with HL-60 was inactive.
Regarding `CCCCCC(=O)[C@@]1(O)C=Cc2c(CC=C(C)C)ccc(O)c2[C@@H]1O`, the MIC in the assay on Staphylococcus aureus [1], in the assay on Staphylococcus aureus [2], in the assay with Escherichia coli and in the assay on Klebsiella pneumoniae was over 64 µg/mL each time. Besides, the outcome in the assay with A549, with A2058, in the assay with HepG2, with MCF7, in the assay on MIA PaCa-2 and with HL-60 was inactive.
As for `CCCCC[C@H](O)[C@@H](O)C[C@H]1OC(=O)c2c(O)ccc(CC=C(C)C)c21`, the MIC in the assay with Staphylococcus aureus [1], with Staphylococcus aureus [2], in the assay with Escherichia coli and in the assay on Klebsiella pneumoniae was over 64 µg/mL throughout. Further, the result in the assay with A549, in the assay on A2058, in the assay with HepG2, with MCF7, with MIA PaCa-2 and in the assay with HL-60 was inactive.

For orientation: MIC means the least concentration at which growth counts as inhibited.
